# Source: patent US20250281451A1, “COMPOSITIONS AND METHODS FOR MODULATING SLEEP AND USES THEREOF” (Brightseed, Inc., priority 2022, published 2025)
# pIC50: −log10 of the molar value. “Also recorded” adds a separate entry of the source.
# How the values were obtained:
# Orx2 = biological target: T1, Orx2 (Homo sapiens, UniProt O43614); experiment: Orx2 antagonist screening, chemiluminescent cell assay with Orexin B EC80; format: cell-based; details: for % Agonism Orx2 at Relative IC50: absolute percent agonism at the μM concentration of the relative OR2 IC50; for pIC50: antagonist mode against Orexin B EC80, read-out: Relative IC50 of Orx2; for IC50 Dilution of Orx2 (fold dilution): concentration of the fraction of the plant source, in fold dilution, needed to achieve IC50 of OR2
# T1 construct: DiscoverX
# T1 sequence (O43614 1-444): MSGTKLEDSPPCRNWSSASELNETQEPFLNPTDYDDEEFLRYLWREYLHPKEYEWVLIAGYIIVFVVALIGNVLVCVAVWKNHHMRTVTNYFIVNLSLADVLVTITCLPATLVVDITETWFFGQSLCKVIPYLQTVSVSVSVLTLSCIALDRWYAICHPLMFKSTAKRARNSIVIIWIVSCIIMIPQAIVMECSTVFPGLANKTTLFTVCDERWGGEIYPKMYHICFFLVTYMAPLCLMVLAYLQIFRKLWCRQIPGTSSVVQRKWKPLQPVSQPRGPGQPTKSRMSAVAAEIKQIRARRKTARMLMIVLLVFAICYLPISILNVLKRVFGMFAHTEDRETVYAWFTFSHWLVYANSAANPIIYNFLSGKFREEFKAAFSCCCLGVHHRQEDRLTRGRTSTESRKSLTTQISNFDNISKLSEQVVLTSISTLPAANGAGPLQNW
# Procedure: For this example, the following protocol was used: 1.) seed cells in 20 μL Cell Plating Reagent; 2.) incubate cells overnight at 37° C. and 5% CO2; 3.) treat cells with 2.5 μL 10× antagonist prepared in Compound Dilution Buffer (For OR2 screening, 2.5 μL of 1:100 natural product sample in DiscoverX cell plating reagent. Control antagonist, Seltorexant, 10× stock was prepared at 1500 nM); 4.) incubate for 30 minutes at 37° C. and 5% CO2; 5.) treat cells with 2.5 μL 10× agonist prepared in Compound Dilution Buffer (For OR2 screening, 2.5 μL of 10× Orexin B EC80, 252.7 nM); 6.) incubate for 90 minutes at 37° C. and 5% CO2; 7.) add 12.5 μL Working Detection Solution; 8.) incubate for 1 hour at room temperature in the dark; and 9.) read chemiluminescent signal.
# (§1) The plants described herein were tested to determine the concentration, in μM, to achieve the relative IC50 of OR2 receptor, the absolute percent agonism achieved at the μM concentration of the relative OR2 IC50, the percentage receptor activity at the concentration, in μM, needed to achieve IC50 in OR2, the percentage cell viability, measured by XTT assay, at the IC50 μM concentration, the concentration of the fraction, in fold dilution, needed to achieve IC50 of OR2, and the percentage receptor activity at the concentration of the fraction, in fold dilution, needed to achieve IC50 of OR2.
# Orx1 = biological target: T2, Orx1 (Homo sapiens, UniProt O43613); experiment: % agonism on Orx1 at the OR2 IC50 concentration; format: cell-based; details: at the μM concentration needed to achieve IC50 in OR2
# T2 sequence (O43613 1-425): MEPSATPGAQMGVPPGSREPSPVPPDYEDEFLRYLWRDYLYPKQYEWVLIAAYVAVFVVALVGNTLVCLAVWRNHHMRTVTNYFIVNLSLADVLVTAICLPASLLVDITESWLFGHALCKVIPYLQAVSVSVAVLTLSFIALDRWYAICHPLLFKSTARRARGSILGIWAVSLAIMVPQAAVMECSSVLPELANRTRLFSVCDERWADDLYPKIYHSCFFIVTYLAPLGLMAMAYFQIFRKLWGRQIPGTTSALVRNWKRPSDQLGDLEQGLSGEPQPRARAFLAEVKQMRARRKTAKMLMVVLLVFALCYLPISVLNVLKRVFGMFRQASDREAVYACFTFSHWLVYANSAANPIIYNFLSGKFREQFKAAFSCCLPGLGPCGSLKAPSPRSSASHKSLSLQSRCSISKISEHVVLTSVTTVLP
# Procedure: For this example, the following protocol was used: 1.) seed cells in 20 μL Cell Plating Reagent; 2.) incubate cells overnight at 37° C. and 5% CO2; 3.) treat cells with 2.5 μL 10× antagonist prepared in Compound Dilution Buffer (For OR2 screening, 2.5 μL of 1:100 natural product sample in DiscoverX cell plating reagent.
# as §1
# cells = experiment: cell viability, XTT assay; format: cell-based; details: at the IC50 μM concentration of the compound
# Procedure: as §1
# male Sprague-Dawley rat = experiment: in vivo tolerability, dose escalation, adverse effect observation; details: for 15 min effects (adverse effects) / 30 min effects (adverse effects) / 60 min effects (adverse effects): n=3 rats, (x/3) animals affected
# Procedure: In this example, the in vivo tolerability of Compounds 26, 21, 29, and 13 was assessed.
# Naïve rats (male Sprague-Dawley rat) were acclimatized to the procedure room in their home cages up to 7 days following arrival to the test facility, with food and water available ad libitum. On the day of experiment, animals were acclimatized to the experimental room for at least one hour prior to the beginning of any experiment. All animals were tail marked, weighed and randomly assigned to treatment groups. The animals (n=3 per dose) were treated with either Compounds 26, 21, 29, and 13 (10 mL/kg, p.o.). For each compound a maximum of 4 doses were tested using a dose escalation procedure starting from 30 mg/kg. If this initial dose is well-tolerated, the dosage is increased to 100 mg/kg. If the 30 mg/kg dose is not tolerated, the dose is reduced to 15 mg/kg. Following the dose escalation procedure, if the 100 mg/kg dose is well-tolerated, the dose is escalated to 315 mg/kg. If it is not tolerated, the dose is decreased to 60 mg/kg. The pattern continues with the next decision point: if 315 mg/kg is well-tolerated, the dose is increased to the maximum of 500 mg/kg. If 315 mg/kg is not tolerated, the dose is decreased to 200 mg/kg.
# The compounds would be considered not tolerated if three or more adverse effects (or any severe adverse effect) occurred at specific dose during the entire period of 60 mins. […] Mild—slight decrease in activity, responsive when provoked. Moderate—decrease in activity, less responsive when provoked.
smiles,measurement,setting,value
"O=c1c(O)c(-c2ccc(O)cc2)oc2cc(O)cc(O)c12 [Compound 12, 3,5,7-trihydroxy-2-(4-hydroxyphenyl)chromen-4-one]",% Agonism Orx2 at Relative IC50,Orx2,65%
same,pIC50,Orx2,4.27
same,IC50 Dilution of Orx2 (fold dilution),Orx2,7039.1 fold dilution
same,% Agonism on Orx1 at OR2 IC50,Orx1,64.4%
same,% Cell viability at IC50,cells,80.39%
"COc1c(O)cc2oc(-c3ccc(O)cc3)c(OC)c(=O)c2c1O [Compound 14, 5,7-dihydroxy-2-(4-hydroxyphenyl)-3,6-dimethoxychromen-4-one]",% Agonism Orx2 at Relative IC50,Orx2,50%
same,pIC50,Orx2,4.05
same,IC50 Dilution of Orx2 (fold dilution),Orx2,3466.5 fold dilution
same,% Agonism on Orx1 at OR2 IC50,Orx1,62.98%
same,% Cell viability at IC50,cells,94.58%
"C[C@@H]1O[C@@H](OC[C@H]2O[C@@H](Oc3c(-c4ccc(O)c(O)c4)oc4cc(O)cc(O)c4c3=O)[C@H](O)[C@@H](O)[C@@H]2O)[C@H](O)[C@H](O)[C@H]1O [Compound 15, 2-(3,4-dihydroxyphenyl)-5,7-dihydroxy-3-[(2S,3R,4S,5S,6R)-3,4,5-trihydroxy-6-[[(2R,3R,4R,5R,6S)-3,4,5-trihydroxy-6-methyloxan-2-yl]oxymethyl]oxan-2-yl]oxychromen-4-one]",% Agonism Orx2 at Relative IC50,Orx2,65%
same,pIC50,Orx2,4.10
same,IC50 Dilution of Orx2 (fold dilution),Orx2,2283.9 fold dilution
same,% Agonism on Orx1 at OR2 IC50,Orx1,67.71%
same,% Cell viability at IC50,cells,103.46%
"COc1ccc(C(=O)CCc2ccc(O)cc2)c(O)c1 [Compound 16, 1-(2-hydroxy-4-methoxyphenyl)-3-(4-hydroxyphenyl)propan-1-one]",% Agonism Orx2 at Relative IC50,Orx2,75%
same,pIC50,Orx2,3.42
same,IC50 Dilution of Orx2 (fold dilution),Orx2,5786.9 fold dilution
same,% Agonism on Orx1 at OR2 IC50,Orx1,77.95%
same,% Cell viability at IC50,cells,85.11%
"O=C(CCc1ccc(O)cc1)c1ccc(O)cc1OC1OC(CO)C(O)C(O)C1O (stereo not drawn) [Compound 17, 3-(4-hydroxyphenyl)-1-[4-hydroxy-2-[3,4,5-trihydroxy-6-(hydroxymethyl)oxan-2-yl]oxyphenyl]propan-1-one]",% Agonism Orx2 at Relative IC50,Orx2,80%
same,pIC50,Orx2,3.73
same,IC50 Dilution of Orx2 (fold dilution),Orx2,5786.9 fold dilution
same,% Agonism on Orx1 at OR2 IC50,Orx1,100.52%
same,% Cell viability at IC50,cells,89.87%
"O=C(CCc1ccc(O)cc1)c1ccc(OC2OC(CO)C(O)C(O)C2O)cc1O (stereo not drawn) [Compound 19, 3-(4-hydroxyphenyl)-1-[2-hydroxy-4-[3,4,5-trihydroxy-6-(hydroxymethyl)oxan-2-yl]oxyphenyl]propan-1-one]",% Agonism Orx2 at Relative IC50,Orx2,80%
same,pIC50,Orx2,3.50
same,IC50 Dilution of Orx2 (fold dilution),Orx2,5786.9 fold dilution
same,% Agonism on Orx1 at OR2 IC50,Orx1,68.74%
same,% Cell viability at IC50,cells,86.12%
"O=C(O)[C@H]1O[C@@H](Oc2c(-c3ccc(O)cc3)oc3cc(O)cc(O)c3c2=O)[C@H](O)[C@@H](O)[C@@H]1O [Compound 20, (2S,3S,4S,5R,6S)-6-[5,7-dihydroxy-2-(4-hydroxyphenyl)-4-oxochromen-3-yl]oxy-3,4,5-trihydroxyoxane-2-carboxylic acid]",% Agonism Orx2 at Relative IC50,Orx2,45%
same,pIC50,Orx2,3.84
same,% Cell viability at IC50,cells,83.58%
"C[C@@H]1O[C@@H](O[C@H]2[C@H](Oc3c(-c4ccc(O)cc4)oc4cc(O)cc(O)c4c3=O)O[C@H](CO)[C@@H](O)[C@@H]2O)[C@H](O)[C@H](O)[C@H]1O [Compound 23, 3-[(2S,3R,4S,5S,6R)-4,5-dihydroxy-6-(hydroxymethyl)-3-[(2S,3R,4R,5R,6S)-3,4,5-trihydroxy-6-methyloxan-2-yl]oxyoxan-2-yl]oxy-5,7-dihydroxy-2-(4-hydroxyphenyl)chromen-4-one]",% Agonism Orx2 at Relative IC50,Orx2,50%
same,pIC50,Orx2,3.76
same,% Agonism on Orx1 at OR2 IC50,Orx1,104.1268%
same,% Cell viability at IC50,cells,107.68%
"CC1O[C@@H](OC2C(O)[C@H](Oc3c(-c4ccc(O)cc4)oc4cc(O)cc(O)c4c3=O)OC(CO)[C@H]2O)[C@@H](O)C(O)[C@H]1O (stereo partly drawn) [Compound 24, 3-[(2S,5R)-3,5-dihydroxy-6-(hydroxymethyl)-4-[(2S,3S,5R)-3,4,5-trihydroxy-6-methyloxan-2-yl]oxyoxan-2-yl]oxy-5,7-dihydroxy-2-(4-hydroxyphenyl)chromen-4-one]",% Agonism Orx2 at Relative IC50,Orx2,45%
same,pIC50,Orx2,3.72
same,% Agonism on Orx1 at OR2 IC50,Orx1,48.83%
same,% Cell viability at IC50,cells,96.12%
"O=c1c(O)c(-c2ccc(O)c(O)c2)oc2cc(O)cc(O)c12 [Compound 29, 2-(3,4-dihydroxyphenyl)-3,5,7-trihydroxychromen-4-one]",15 min effects (adverse effects),male Sprague-Dawley rat; 30 mg/kg p.o.,No adverse effects
same,30 min effects (adverse effects),male Sprague-Dawley rat; 30 mg/kg p.o.,No adverse effects
same,60 min effects (adverse effects),male Sprague-Dawley rat; 30 mg/kg p.o.,No adverse effects
same,15 min effects (adverse effects),male Sprague-Dawley rat; 100 mg/kg p.o.,Reduced activity
same,30 min effects (adverse effects),male Sprague-Dawley rat; 100 mg/kg p.o.,No adverse effects
same,60 min effects (adverse effects),male Sprague-Dawley rat; 100 mg/kg p.o.,No adverse effects
same,15 min effects (adverse effects),male Sprague-Dawley rat; 315 mg/kg p.o.,Reduced activity
same,30 min effects (adverse effects),male Sprague-Dawley rat; 315 mg/kg p.o.,Reduced activity; also recorded: Pica (2/3)
same,60 min effects (adverse effects),male Sprague-Dawley rat; 315 mg/kg p.o.,Reduced activity (3/3)
same,15 min effects (adverse effects),male Sprague-Dawley rat; 500 mg/kg p.o.,Pica (1/3)
same,30 min effects (adverse effects),male Sprague-Dawley rat; 500 mg/kg p.o.,Pica (2/3)
same,60 min effects (adverse effects),male Sprague-Dawley rat; 500 mg/kg p.o.,No adverse effects
same,tolerability,"male Sprague-Dawley rat; all four doses (30, 100, 315 and 500 mg/kg) p.o., 60 min observation",well-tolerated
